Drawing on patent publication US8445510B2, “Fused bicyclic kinase inhibitors” (OSI Pharmaceuticals, LLC, priority 2011, dated 2013), this text covers IC50 for 14 molecules.

The target in one assay is T1, RON (Homo sapiens, UniProt Q04912).
T1 sequence (Q04912 913-1400): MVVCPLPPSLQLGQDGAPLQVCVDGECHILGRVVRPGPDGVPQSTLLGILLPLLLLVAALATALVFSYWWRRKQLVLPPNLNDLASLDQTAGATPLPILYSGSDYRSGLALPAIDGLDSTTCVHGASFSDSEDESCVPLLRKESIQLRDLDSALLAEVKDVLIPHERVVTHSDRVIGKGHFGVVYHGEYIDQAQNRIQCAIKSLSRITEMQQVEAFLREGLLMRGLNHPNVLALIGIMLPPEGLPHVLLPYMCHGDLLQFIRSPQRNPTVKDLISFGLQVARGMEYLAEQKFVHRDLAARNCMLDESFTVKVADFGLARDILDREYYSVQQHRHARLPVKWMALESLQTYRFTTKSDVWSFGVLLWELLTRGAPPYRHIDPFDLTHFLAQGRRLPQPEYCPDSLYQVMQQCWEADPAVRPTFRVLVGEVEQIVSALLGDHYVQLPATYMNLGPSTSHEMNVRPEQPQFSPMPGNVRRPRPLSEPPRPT
Nature of the assay: sfRON cell mechanistic assay (HeLa), phosphorylated RON ELISA. As to conditions: HeLa cells transfected with sfRON; inhibition of phosphorylated RON; four hours incubation; at least duplicate experiments; read-out: sfRON mech IC50. Type of assay: cell-based. Put shortly: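 HeLa cells transiently transfected with sfRON plasmid, then exposed 4 h at 37 °C to a 6-point compound series (typically 10 μM to 3 nM, 0.5% DMSO). Phospho-RON (pY1238/1239) in lysates measured by sandwich ELISA with luminescence. IC50 from 4-parameter fit of percent-of-DMSO-control data, at least duplicate runs.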
Background: An ELISA detects its analyte on a solid surface through an enzyme-linked reagent.

The subject of the next assay is MKN45 cells. The experiment in a line: MKN45 cell proliferation assay (CellTiter-Glo). Type of assay: cell-based. To be noted: Homo sapiens, MKN-45, 72 h; MKN45 cell line; 3 days incubation; at least duplicate experiments; read-out: Prolif. IC50.

For `Cc1c(-c2cnc3[nH]cc([C@H](C)c4c(O)ccc(F)c4Cl)c3c2)cnn1[C@H]1CC[C@H](O)CC1` [Example 102, 3-Chloro-4-fluoro-2-[(1S)-1-{5-[1-(trans-4-hydroxycyclohexyl)-5-methyl-1H-pyrazol-4-yl]-1H-pyrrolo[2,3-b]pyridin-3-yl}ethyl]phenol], the half-maximal inhibitory concentration (IC50) (as a rule, the concentration needed to halve the response being measured) at RON was 200 to 1000 nM; with MKN45 cells, at most 50 nM.
In the same order, the values of `CCOc1ccc(F)c(Cl)c1[C@@H](C)c1c[nH]c2ncc(-c3cnn([C@H]4CC[C@H](O)CC4)c3C)cc12` [Example 103, trans-4-(4-{3-[(1S)-1-(2-Chloro-6-ethoxy-3-fluorophenyl)ethyl]-1H-pyrrolo[2,3-b]pyridin-5-yl}-5-methyl-1H-pyrazol-1-yl)cyclohexanol] are at most 200 nM and at most 50 nM.
Taken in the same sequence, the figures for `Cc1c(-c2cnc3[nH]cc([C@H](C)c4c(OC(C)C)ccc(F)c4Cl)c3c2)cnn1[C@H]1CC[C@H](O)CC1` [Example 104, trans-4-[4-(3-{(1S)-1-[2-Chloro-3-fluoro-6-(propan-2-yloxy)phenyl]ethyl}-1H-pyrrolo[2,3-b]pyridin-5-yl)-5-methyl-1H-pyrazol-1-yl]cyclohexanol] were 200 to 1000 nM and at most 50 nM.
On to `Cc1c(-c2cnc3[nH]cc([C@H](C)c4c(OCC(F)(F)F)ccc(F)c4Cl)c3c2)cnn1[C@H]1CC[C@H](O)CC1` [Example 105, trans-4-[4-(3-{(1S)-1-[2-Chloro-3-fluoro-6-(2,2,2-trifluoroethoxy)-phenyl]ethyl}-1H-pyrrolo[2,3-b]pyridin-5-yl)-5-methyl-1H-pyrazol-1-yl]cyclohexanol], for which the IC50 on RON was at most 200 nM; in the assay on MKN45 cells, at most 50 nM.
As to `COc1cc(OC)c(Cl)c([C@@H](C)c2c[nH]c3ncc(-c4cnn([C@H]5CC[C@H](O)CC5)c4C)cc23)c1Cl` [Example 106, trans-4-(4-{3-[(1S)-1-(2,6-Dichloro-3,5-dimethoxyphenyl)ethyl]-1H-pyrrolo[2,3-b]pyridin-5-yl}-5-methyl-1H-pyrazol-1-yl)cyclohexanol], the half-inhibitory concentration (IC50) on RON is 200 to 1000 nM; with MKN45 cells, at most 50 nM.
In the same order, the values of `[2H]C([2H])([2H])Oc1ccc(F)c(Cl)c1[C@@H](C)c1c[nH]c2ncc(-c3cnn([C@H]4CC[C@H](O)CC4)c3C)cc12` [Example 107, trans-4-(4-{3-[(1S)-1-{2-Chloro-3-fluoro-6-[(^2H3)methyloxy]phenyl}ethyl]-1H-pyrrolo[2,3-b]pyridin-5-yl}-5-methyl-1H-pyrazol-1-yl)cyclohexanol] are 200 to 1000 nM and at most 50 nM.
In the case of `Cc1c(-c2cnc3[nH]cc(C(C#N)c4c(Cl)ccc(F)c4Cl)c3c2)cnn1[C@H]1CC[C@H](O)CC1` (stereo partly drawn) [Example 108, (2,6-Dichloro-3-fluorophenyl){5-[1-(trans-4-hydroxycyclohexyl)-5-methyl-1H-pyrazol-4-yl]-1H-pyrrolo[2,3-b]pyridin-3-yl}acetonitrile], the IC50 is above 1000 nM on RON and 50 to 200 nM with MKN45 cells.
Take `[2H][C@@](C)(c1c(OC)ccc(F)c1Cl)c1c[nH]c2ncc(-c3cnn([C@H]4CC[C@H](O)CC4)c3C)cc12` [Example 110, trans-4-(4-{3-[(1S)-1-(2-Chloro-3-fluoro-6-methoxyphenyl)(1-^2H)ethyl]-1H-pyrrolo[2,3-b]pyridin-5-yl}-5-methyl-1H-pyrazol-1-yl)cyclohexanol]: the IC50 is 200 to 1000 nM on RON and at most 50 nM in the assay on MKN45 cells.
Turning to `[2H]C([2H])([2H])[C@H](c1c(OC)ccc(F)c1Cl)c1c[nH]c2ncc(-c3cnn([C@H]4CC[C@H](O)CC4)c3C)cc12` [Example 111, trans-4-(4-{3-[(1S)-1-(2-Chloro-3-fluoro-6-methoxyphenyl)(2,2,2-^2H3)ethyl]-1H-pyrrolo[2,3-b]pyridin-5-yl}-5-methyl-1H-pyrazol-1-yl)cyclohexanol], the 50% inhibitory concentration (IC50) was 200 to 1000 nM on RON and at most 50 nM in the assay with MKN45 cells.
In the same order, the values of `COc1ccc(F)c(Cl)c1[C@@H](CF)c1c[nH]c2ncc(-c3cnn([C@H]4CC[C@H](O)CC4)c3C)cc12` [Example 121, trans-4-(4-{3-[(1S)-1-(2-Chloro-3-fluoro-6-methoxyphenyl)-2-fluoroethyl]-1H-pyrrolo[2,3-b]pyridin-5-yl}-5-methyl-1H-pyrazol-1-yl)cyclohexanol] are 200 to 1000 nM and at most 50 nM.
Taken in the same sequence, the figures for `Cc1c(-c2cnc3[nH]cc([C@@H](CF)c4c(OC(F)F)ccc(F)c4Cl)c3c2)cnn1[C@H]1CC[C@H](O)CC1` [Example 123, trans-4-[4-(3-{(1R)-1-[2-chloro-6-(difluoromethoxy)-3-fluorophenyl]-2-fluoroethyl}-1H-pyrrolo[2,3-b]pyridin-5-yl)-5-methyl-1H-pyrazol-1-yl]cyclohexanol] were 200 to 1000 nM and 200 to 1000 nM.
As for `Cc1c(-c2cnc3[nH]cc([C@H](CF)c4c(OC(F)F)ccc(F)c4Cl)c3c2)cnn1[C@H]1CC[C@H](O)CC1` [Example 124, trans-4-[4-(3-{(1S)-1-[2-chloro-6-(difluoromethoxy)-3-fluorophenyl]-2-fluoroethyl}-1H-pyrrolo[2,3-b]pyridin-5-yl)-5-methyl-1H-pyrazol-1-yl]cyclohexanol], the results for the IC50 at RON and in the assay with MKN45 cells were at most 200 nM and at most 50 nM, respectively.
As to `C[C@H](c1c(OC(F)F)ccc(F)c1Cl)c1c[nH]c2ncc(-c3cnc(N4CCC(O)CC4)n3C)cc12` [Example 125, 1-[5-(3-{(1S)-1-[2-Chloro-6-(difluoromethoxy)-3-fluorophenyl]ethyl}-1H-pyrrolo[2,3-b]pyridin-5-yl)-1-methyl-1H-imidazol-2-yl]piperidin-4-ol], the IC50 at RON is at most 200 nM; in the assay with MKN45 cells it was at most 50 nM.
As to `C[C@H](c1c(OC(F)F)ccc(F)c1Cl)c1c[nH]c2ncc(-c3cnc([C@H]4CC[C@H](O)CC4)n3C)cc12` [Example 126, trans-4-[5-(3-{(1S)-1-[2-Chloro-6-(difluoromethoxy)-3-fluorophenyl]ethyl}-1H-pyrrolo[2,3-b]pyridin-5-yl)-1-methyl-1H-imidazol-2-yl]cyclohexanol], the IC50 at RON is at most 200 nM; in the assay on MKN45 cells it was at most 50 nM.
